Key:
[1] = system: endothelial tube formation in co-cultures of ECFCs and ADSCs treated with VEGF; test: cells; format: cell-based, human
INS-1E cells = test: cells; format: cell-based, rat; conditions: 5 mM glucose; for 5mMGluc_INS1E SecretionMod IC50/EC50: assay number 8;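 as to all read-outs here: secreted insulin quantified by homogeneous immunoassay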
NCI-H716 cells = test: cells; format: cell-based, Human; conditions: for IC50/EC50, hNCI-H716 GLP1 Secretion (assay number 12): concentration response; for hNCI-H716 GLP1 Secretion IC50/EC50: assay number 12
STC-1 cell line = format: cell-based, mouse; conditions: for IC50/EC50, mSTC-1 GLP1 Secretion (assay number 13): concentration response; for mSTC-1 GLP1 Secretion IC50/EC50: assay number 13
[2] = system: ECFC/ADSC co-culture cell nuclei number
DLD-1 = test: cells; format: cell-based; conditions: assay number 23; basal
SW480 = test: cells; format: cell-based; conditions: assay number 24; basal
HCT116 = test: cells; format: cell-based; conditions: assay number 25; basal
[3] = system: HCT116 cells treated with a GSK3β inhibitor; test: cells; format: cell-based; conditions: assay number 26; GSK3b inhibitor pretreated
Colo320 = test: cells; format: cell-based; conditions: assay number 27; basal
HT-29 = test: cells; format: cell-based; conditions: assay number 28; basal
RKO = test: cells; format: cell-based; conditions: assay number 29; basal
SNU-C1 = test: cells; format: cell-based; conditions: assay number 30; basal

SMILES	VEGF_ADSC\ECFC Angio CD31 TubeArea IC50/EC50 [1] [µM]	5mMGluc_INS1E SecretionMod IC50/EC50 (INS-1E cells) [µM]	hNCI-H716 GLP1 Secretion IC50/EC50 (NCI-H716 cells) [µM]	mSTC-1 GLP1 Secretion IC50/EC50 (STC-1 cell line) [µM]	VEGF_ADSC\ECFC Angio Hoechst NucArea IC50/EC50 [2] [µM]	also measured
Cc1cc(OI)c(C(C)C)cc1-c1cc(C(C)C)c(OI)cc1C [NCGC00159504-04]						IC50/EC50, VEGF_ADSC\ECFC Angio CD31 TubeArea (assay number 2) [1]: > 10 µM; IC50/EC50, 5mMGluc_INS1E SecretionMod (assay number 8) (INS-1E cells): > 33.33 µM; IC50/EC50, hNCI-H716 GLP1 Secretion (assay number 12) (NCI-H716 cells): > 40 µM; IC50/EC50, mSTC-1 GLP1 Secretion (assay number 13) (STC-1 cell line): 15.1081 µM; IC50/EC50, VEGF_ADSC\ECFC Angio Hoechst NucArea (assay number 3) [2]: > 10 µM
CCCCCN=C(N)N/N=C/c1c[nH]c2ccc(OC)cc12 [NCGC00095192-05]	3.1318	16.8442	10.8586	> 40	7.175	
CC(C)(C)CC(C)(C)c1ccc(O)c(Cc2ccc(Cl)cc2Cl)c1 [NCGC00095016-05]		> 33.33	9.073	0.5436		
Cc1cc(O)c2c(O)c3c(O)cccc3cc2c1 [NCGC00181774-02]						IC50/EC50, VEGF_ADSC\ECFC Angio CD31 TubeArea (assay number 2) [1]: > 10 µM; IC50/EC50, 5mMGluc_INS1E SecretionMod (assay number 8) (INS-1E cells): > 33.33 µM; IC50/EC50, hNCI-H716 GLP1 Secretion (assay number 12) (NCI-H716 cells): > 20 µM; IC50/EC50, mSTC-1 GLP1 Secretion (assay number 13) (STC-1 cell line): 11.3101 µM; IC50/EC50, VEGF_ADSC\ECFC Angio Hoechst NucArea (assay number 3) [2]: > 10 µM
Cc1c(N)cccc1C(F)(F)F [NCGC00253636-01]	> 10	> 33.33	> 40	> 40	> 10	
Fc1cc(Br)ccc1CBr [NCGC00253679-01]		> 33.33	> 40	> 40		
CC(COc1ccccc1)NN (stereo not drawn) [NCGC00183828-01]	> 10	> 33.33	> 40	27.1817	> 10	
CCCCCCCCCCCCCCCC[N+](C)(C)CC.[Br-] [NCGC00166120-02]	1.1378		11.7347	> 40	7.579	Basal_Viability ATP DLD-1 IC50/EC50 (DLD-1): 0.7403 µM; Basal_Viability ATP SW480 IC50/EC50 (SW480): 1.2387 µM; Basal_Viability ATP HCT116 IC50/EC50 (HCT116): 3.1595 µM; GSK3b inh pretreated_Viability ATP HCT116 IC50/EC50 [3]: 2.6825 µM; Basal_Viability ATP Colo 320 IC50/EC50 (Colo320): 0.0372 µM; Basal_Viability ATP HT-29 IC50/EC50 (HT-29): 0.4091 µM; Basal_Viability ATP RKO IC50/EC50 (RKO): 0.9309 µM; Basal_Viability ATP SNU-C1 IC50/EC50 (SNU-C1): 0.004 µM
CCOC(=O)c1ccccc1O [NCGC00181161-03]						IC50/EC50, 5mMGluc_INS1E SecretionMod (assay number 8) (INS-1E cells): > 33.33 µM; IC50/EC50, hNCI-H716 GLP1 Secretion (assay number 12) (NCI-H716 cells): > 40 µM; IC50/EC50, mSTC-1 GLP1 Secretion (assay number 13) (STC-1 cell line): > 40 µM
O=C1Nc2ccc(Cl)cc2[C@@](C#CC2CC2)(C(F)(F)F)O1 [NCGC00159337-04]		3.8674	21.246	2.476		
NC(=O)C1(N2CCCCC2)CCN(CCCN2c3ccccc3CCc3ccc(Cl)cc32)CC1 [NCGC00253595-01]	3.4001	10.0823	18.348	> 40	> 10	

— article PMC4503722, “Novel Phenotypic Outcomes Identified for a Public Collection of Approved Drugs from a Publicly Accessible Panel of Assays” (PLoS ONE, 2015)
